These results are taken from patent US5959145A, “Fatty acid analog enzyme substrates” (priority 1993, dated 1999).

Data set [1] in a line: growth, toxicity and total protein synthesis in yeast cells. The conditions noted are these: s. cerevisiae bj405, vs control cells not exposed to exogenous fatty acid, read-out: reduction in total protein synthesis ([35S]methionine into TCA precipitable protein). The format is cell-based. As to the method:
Saccharomyces cerevisiae strain BJ405 [MATα, trpl, prbl, prcl, pep4-3; Hemmings et al., Proc. Natl. Acad. Sci. USA 78, 435-439 (1981)] (previously referred to as JR153) was grown to mid-log phase (OD660 nm =1.0-1.2) in YPD medium (1% yeast extract/2% Bactopeptone/2% Dextrose) at 30° C. in a rotary shaker water bath. Cells were pretreated with Cerulenin at 2 μg/ml for 15 minutes and then incubated for 20-45 minutes with unlabeled myristate, palmitate or fatty acid analog at 100 μM in the presence of either 5 μM [9,10-^3 H(N)]-myristate (22.4 Ci/mmol) or L-[^35 S]methionine (1106 Ci/mmol) at 30 μCi/ml of culture.
Cells were cooled on ice 5 minutes, pelleted at 10,000×g, then broken and extracted by the method of Towler et al., Proc. Natl. Acad. Sci. USA 83, 2812-2816 (1986). Total protein synthesis was assayed by trichloroacetic acid (TCA) precipitation. Proteins were separated by SDS-12% polyacrylamide gel electrophoresis, and [^3 H]fatty acid incorporation into cellular acyl-proteins was assayed by autoradiography followed by laser densitometry.

For a further data set, the target named is T1, yeast NMT (Saccharomyces cerevisiae, UniProt P14743).
T1 construct: 11,000-fold purified preparation of yeast NMT; endogenous in cells; host or cells: yeast (enzyme purified from yeast, 11,000-fold)
T1 sequence (P14743 1-455): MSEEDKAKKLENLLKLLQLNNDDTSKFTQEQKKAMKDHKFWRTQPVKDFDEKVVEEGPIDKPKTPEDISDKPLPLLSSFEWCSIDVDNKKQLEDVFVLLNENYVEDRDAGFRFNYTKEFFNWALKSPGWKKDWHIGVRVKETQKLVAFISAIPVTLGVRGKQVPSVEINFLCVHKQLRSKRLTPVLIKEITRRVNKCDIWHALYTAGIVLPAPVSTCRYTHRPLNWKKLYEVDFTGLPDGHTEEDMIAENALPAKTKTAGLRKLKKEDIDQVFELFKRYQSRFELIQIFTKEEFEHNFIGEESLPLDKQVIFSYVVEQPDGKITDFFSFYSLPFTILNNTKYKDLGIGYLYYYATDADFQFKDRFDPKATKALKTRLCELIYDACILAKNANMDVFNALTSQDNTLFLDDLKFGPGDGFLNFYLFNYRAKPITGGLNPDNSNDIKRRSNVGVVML
Briefly: kinetic characterisation of fatty acid analogs as yeast NMT substrates. The format is biochemical. An excerpt: Similar results were obtained using an 11,000-fold purified preparation of yeast NMT [Towler et al., Proc. Natl. Acad. Sci. USA 84, 2708-2712 (1987)].
Other illustrative examples of the oxy- and thio-substituted fatty acid analog substrate compounds of the invention were synthesized in Examples 6 to 14 and tested in Example 15 as substrates for the yeast NMT.
For these Examples, each analog synthesized is characterized by ^1 H and ^13 C NMR as well as mass spectroscopy. The analogs are then characterized kinetically as NMT substrates. Briefly, fatty acid analogs are converted to their CoA esters with Pseudomonas CoA ligase and incubated with the iodinated peptide GNAAS[^125 I]YRR and a source of NMT. […] The radiolabelled peptide is then used at concentrations which will lead to 50% enzyme saturation (i.e., at its Km) for the determination of fatty acid analog kinetic characteristics. Representative analogs with sulfur or oxygen in the backbone of the fatty acid chain serve as good substrates for NMT in vitro and will compete for incorporation of ^3 H labelled myri-state into yeast proteins in vivo. In addition, these analogs differ markedly in hydrophobicity from myri-state as measured both by C18 reverse phase HPLC elution profiles and by 2-octanol/water partition coefficients. The analog CH3 O(CH2)11 COOH, for example, partitions into water 20 fold better than myristate. It is believed that these analogs will be incorporated into mammalian acylproteins in vivo and that their incorporation into these proteins will drastically alter protein processing or targeting. It is further believed that the incorporation of fatty acid analogs of both myristate and palmitate into ester linked and phosphatidyl inositol glycan linked acylproteins will also dramatically alter their properties. Since many viral proteins and oncogenes are acylated, these compounds represent a new class of potential antiviral and antineoplastic agents.

In the case of `CCCCCCCCCCCCCC(=O)O` [myristic acid, reference compound], the inhibition at 100 µM in data set [1] is 10 to 15%. Also, the “Peptide Vm” value at yeast NMT (peptide GNAAS[125I]YRR varied, fatty acid analog at 15 μM, myristate control = 100%) came out at 100%. On yeast NMT (radiolabelled peptide at its Km, analog varied, myristate control = 100%), the “Acyl CoA Vm” value was found to be 100%. Also, the Michaelis constant (Km) on yeast NMT (radiolabelled peptide at its Km, analog varied, read-out: Acyl CoA Km) was determined as 0.6 µM.
